For data set [1], the target named is recombinant E. coli Cys-TrxR (Escherichia coli, UniProt P0A9P4). As to the kind of experiment: Kinetic analysis of HOSeCN metabolism. The class given is biochemical. The settings on record: similar conditions. The source says:
FIG. 12. Kinetic analysis of HOSeCN metabolism by recombinant mouse Sec-TrxR2 and recombinant E. coli Cys-TrxR.

Data set [2] deals with Burkholderia cepacia complex (BCC). As to the kind of experiment: BCC viability (CFU) after SeCN / peroxidase system. Format: cell-based. The conditions noted are these: full peroxidase system, 1 hour, pH 7.4. On the procedure:
(§1) Human bronchial epithelial cells (HBE) or Burkholderia cepacia complex (BCC) were treated for 1 hour in PBS (control), SeCN only (grey bars), glucose oxidase only (hatch bar), or full peroxidase system (black bar) at pH 7.4 and then media replaces and viability assessed 24 hours later. HBE cell viability assessed by MTT and bacterial cell viability assessed by colony forming units.

In the next data set the target is DmTrxR (containing Cys) (Drosophila melanogaster, UniProt P91938). As to the kind of experiment: Inactivation of TrxR by oxidants. Format: biochemical. On the procedure: (§2) Based on data, it is expected that Sec-TrxR1 is able to metabolize both HOSCN and HOSeCN but not HOCl, and that Cys-TrxR's is unable to metabolize these oxidants. The active site Cys or Sec residue of each respective enzyme is oxidized to either Cys-SO2^− or Sec-SeO2^−. The Cys-TrxR cannot recover from this oxidation while the Sec-TrxR can. To test this, an inactivation assay is performed followed by structural analysis of the protein by MS. In the inactivation assay, (i) enzymes are reduced with NADPH, (ii) the enzymes are treated with oxidant followed by desalting to remove oxidant, and (iii) the enzyme is assayed for activity. […] The proteins are proteolyzed followed by LC-MS analyses. The LC-MS profiles are compared to control samples not treated with oxidant. This determines the exact mechanism of inactivation for each enzyme. […] This would explain why HOCl is highly inflammatory (nonspecific oxidation), and why HOSCN is used as a bactericide because it can rapidly inactivate proteins/enzyme by oxidation of sulfur amino acids (Cys, Met), but can be metabolized by the host cell by Sec-TrxR.
Chain of DmTrxR (containing Cys) (P91938 112-596 limits assumed): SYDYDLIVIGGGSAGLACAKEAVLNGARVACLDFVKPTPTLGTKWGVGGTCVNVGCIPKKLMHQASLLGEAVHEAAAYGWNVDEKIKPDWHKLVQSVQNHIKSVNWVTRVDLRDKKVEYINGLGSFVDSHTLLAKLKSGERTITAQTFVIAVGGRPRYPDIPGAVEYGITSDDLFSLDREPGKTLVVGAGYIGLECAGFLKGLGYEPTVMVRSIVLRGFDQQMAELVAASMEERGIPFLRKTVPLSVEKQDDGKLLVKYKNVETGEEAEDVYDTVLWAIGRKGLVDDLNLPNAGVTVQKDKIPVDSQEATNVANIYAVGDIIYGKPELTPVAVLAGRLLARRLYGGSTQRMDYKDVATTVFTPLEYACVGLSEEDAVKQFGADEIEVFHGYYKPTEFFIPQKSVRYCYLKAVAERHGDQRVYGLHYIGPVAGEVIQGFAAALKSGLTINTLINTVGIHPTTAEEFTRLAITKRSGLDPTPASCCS

Data set [3] addresses Sec-containing TrxR2 (Sec-TrxR2) (Mus musculus, UniProt Q9JLT4). The data set is described as follows: Inactivation of TrxR by oxidants. The class given is biochemical. On the procedure: as §2
A further data set concerns 16HBE cells. As to the kind of experiment: Sec-TrxR inhibition and HOSCN toxicity in lung cells (LDH release). Format: cell-based, human. The settings on record: auranofin 1 hour, then 300 μM HOSCN, viability 24 hours later. The procedure: FIG. 19. […] 16HBE cells were treated with auranofin at increasing concentrations for 1 hour and then exposed to 300 μM of either HOSCN or HOCl and viability was assessed by lactate dehydrogenase release 24 hours later. Vehicle (Veh).
Additional studies determine both leukocyte viability and bacterial viability after ^−SCN treatments and under simulated ^−SCN conditions with and without pharmacological inhibition of Sec-TrxR using auranofin and aurothioglucose (Rigobello, M. P., et al. (2008) Gold(I) complexes determine apoptosis with limited oxidative stress in Jurkat T cells. Eur J Pharmacol 582, 26-34). […] These assays have been described to study bacterial killing by neutrophils (Hampton, M. B., and Winterbourn, C. C. (1999) Methods for quantifying phagocytosis and bacterial killing by human neutrophils. J Immunol Methods 232, 15-22). Neutrophil death is assessed by flow cytometry using % of Annexin V (apoptosis marker) and propidium iodide (PI, necrosis marker) positive cells in each gate as shown in FIG. 7.
(In general: LDH leaks from cells whose membrane has failed.)

The test system of data set [4] is Pseudomonas aeruginosa, Burkholderia cepacia complex, methicillin resistant Staphylococcus aureus. The data set is described as follows: Killing of CF colonizing bacteria by SCN or SeCN with host defense system (LPO+GOX). Format: cell-based. The settings on record: 400 uM with LPO+GOX, 2 hours at room temperature, CFU.
Method: Comparisons of HOSeCN on SCN sensitive and resistant strains of (FIGS. 30A & 30B) BCC clinical isolates, (FIGS. 30C & 30D) PA clinical isolates, and (FIG. 30E & FIG. 30F) MRSA clinical isolates. Bacteria were incubated for 2 hour with LPO, ^−SCN or SeCN, glucose and increasing amounts of GOX. The flux (HOX) of either HOSCN or HOSeCN was determined from standard curves of GOX/LPO and either HOSCN or HOSeCN. LC50 values were determined by curve fitting the data with nonlinear regression of log (agonist) vs normalized response.
Another data set concerns M. Abscessus. As to the kind of experiment: Killing of NTM clinical isolate with LPO/GOX and SCN or SeCN. Format: cell-based. The conditions noted are these: 1800 mU/mL LPO and 300 mU/mL GOX. An excerpt:
A HOSCN-sensitive nontuberculous Mycobacteria (NTM) clinical isolate ws exposed to LPO/GOX with either SCn or SeCN.
(§3) Susceptibility of NTM species to both HOSCN- and HOSeCN-mediated killing. […] Given the shorter amount of time necessary for —SeCN-mediated killing of NTM compared to other bacteria species (FIGS. 24A and 24B), the possibility that the mechanism responsible for —SeCN-mediated killing of NTM was unique compared to —SCN-mediated killing of NTM and —SeCN-mediated killing of other species is determined. […] Since killing required LPO, the inventors believe that endogenous H2O2 production by NTM provided the H2O2 required for the generation of HOSeCN via LPO and —SeCN.

Data set [5] has as its system clinical isolate of M. abscessus. The data set is described as follows: NTM killing, exposure to GOX, LPO, SeCN components. The conditions noted are these: plated on LB agar immediately after mixing. The class given is cell-based.
Source text: (§4) FIGS. 24A and 24B show —SeCN-mediated killing of NTM requires LPO, but not GOX, while LPO/—SeCn has no effect upon B. Cepacia. […] All conditions with GOX also contained dextrose, the required substrate of GOX for H2O2 production.
as §3

The subject of data set [6] is Burkholderia cepacian clinical isolate. As to the kind of experiment: B. cepacia exposure to LPO and KSeCN. Format: cell-based. The conditions noted are these: 1000 mU/mL LPO, no GOX; 0 hr and 1 hour at 37 C.
Source text: as §4, §3

Data set [7] relates to NTM strains (MABSC subspecies abscessus and massiliense). As to the kind of experiment: LPO and SeCN dose responses in the killing of NTM. The class given is cell-based. The settings on record: four NTM strains, dose curves of LPO and SeCN, plated on LB agar immediately after mixing. On the procedure: FIGS. 25A and 25B show [LPO] and [—SeCN] dose responses in the killing of NTM. […] All samples were plated on LB immediately after mixing. CF0271-0636 and the ATCC strains were MABSC subspecies abscessus and CF0008-6241 was subspecies massiliense.
(§5) To examine the variability in susceptibility to HOSeCN-mediated killing amongst clinical NTM isolates obtained from CF airways, four NTM strains were exposed to dose curves of LPO and —SeCN (FIGS. 25A and 25B). While some variations were detected in the sensitivity to killing amongst the isolates, bacterial viability was reduced to less than 10% with all isolates when plated on LB agar immediately after reactions were mixed. Importantly, levels of —SeCN able to reduce bacterial viability were not toxic to human epithelial cells, even in the presence of GOX (FIG. 26).

Data set [8] relates to Human bronchial epithelial cells (HBE). As to the kind of experiment: HBE cell viability (MTT) after SeCN / peroxidase system. The class given is cell-based. The settings on record: 1 hour treatment, viability 24 hours later, even in the presence of GOX. On the procedure:
as §1, §5

The subject of data set [9] is clinical isolate of M. abscessus. The data set is described as follows: SeCN-mediated killing of NTM in different buffer/media. Format: cell-based. On the procedure:
FIGS. 27A-27C show —SeCN-mediaed killing of NTM requires active growth. A clinical isolate of M. abscessus was incubated in the listed buffer/media containing LPO at 1000 mU/ml and either KCL or SeCN. At the indicated time, samples were plated on LB agar as undiluted or 10× diluted in PBS. […] FIG. 27A in PBS; FIG. 27B in Middlebrook 7H9; FIG. 27C in Lysogeny Broth.
Given the reduced viability observed with immediate plating of LPO/—SeCN reactions on LB agar while —SCN-mediated killing required prolonged incubation, the possibility that HOSeCN generated on the LB agar was responsible for the loss in viability was determined. […] The inventors believe that the LPO in undiluted samples remained active on the LB agar, and that the HOSeCN-mediated killing of NTM, which was not metabolically active in the PBS buffer, requires active growth of the NTM, which occurs on the LB agar. To test this, the PBS buffer was substituted with either Middlebrook 7H9 media (without catalase) or LB broth (FIGS. 27A, 27B and 27C).

The subject of a further data set is NTM. As to the kind of experiment: Preincubation of NTM with LPO, washing, then SeCN. The class given is cell-based. The settings on record: data not shown. The procedure:
The opposite is expected to be true for highly resistant NTMs. Adding exogenous catalase or an H2O2 scavenger is expected to inhibit —SeCN-mediated killing, while inhibiting endogenous catalase activity will increase —SeCN-mediated killing. In addition, LPO activity is expected to be localized to the surface of the bacterium. […] It is expected that very little Burkholderia will be killed when incubated in the presence of NTM/LPO/—SeCN, as the highly reactive HOSeCN species will be consumed by the NTM.

A short description of data set [10]: Inhaled SeCN in mice, ELF and serum levels by HPLC-EC. Format: in vivo, Mice (C57B6). The settings on record: aerosolized isotonic 0.05% (w/v) solution in PBS for 30 minutes. The procedure:
Mice are exposed to aerosolized isotonic (0.9%) or isotonic ^−SeCN (0.05%) in a Plexiglas nebulizing chamber (see FIG. 32 for data). Isotonicity is maintained by substituting ^−SeCN for NaCl. All stock solutions are freshly prepared and 10 mL are nebulized over the 30 minute exposure using a pulmosonic nebulizer (DeVilbiss). Outcomes include: 1) changes in serum, ELF, lung and BAL cell GSH, ^−SCN and SeCN levels; 2) changes is lung tissue Sec-TrxR levels and activity; 3) changes in oxidative stress with assessments of DNA (8-hydroxy-2-deoxyguanosine, 8OH2dG) and lipid (4-hydroxynonenal, 4HNE) oxidation; 4) changes in lung and blood bacterial CFUs; 5) changes in bronchoalveolar lavage fluid (BALF) protein, IgM and lactate dehydrogenase (LDH) as markers of edema and injury; 6) BAL cell counts and differentials as markers of inflammation; 7) changes in BALF cytokine profile (Mouse pro-inflammatory-7 Ultra sensitive kit, IFNγ, IL-1β, IL-10, IL-12p70, IL-6, KC, TNFα, Meso Scale Discovery) as markers of inflammation; and 8) standard histopathology assessments.

The test system of data set [11] is M. massiliense clinical isolate. The data set is described as follows: Exogenous catalase inhibition of LPO/SeCN killing of NTM. The class given is cell-based. The settings on record: high levels of catalase; 1 mM SeCN, 1600 mU/mL LPO. The procedure: FIG. 29A M. massiliense clinical isolate was incubated with 1 mM SeCN and either 1600 mU/mL LPO alone or with catalase.
It is well known that NTM species express catalase genes and have the ability to produce H2O2 (Wayne L G, Diaz G A. Detection of a novel catalase in extracts of Mycobacterium avium and Mycobacterium intracellulare. Infection and immunity. 1988; 56(4):936-41.). As H2O2 is a required substrate of LPO and no exogenous source of H2O2 is needed for LPO/—SeCN-mediated killing, it is expected that NTM provides the H2O2 for utilization by LPO to generate HOSeCN. The inventors have performed a set of experiments that provide evidence that endogenously produced H2O2 plays a role in the LPO/—SeCN-mediated killing of NTM. In FIG. 29, exogenous catalase is utilized in an attempt to inhibit the LPO-mediated generation of HOSeCN. At high levels of catalase, 100% of the killing was inhibited. The high levels of catalase required for inhibition may be due to several reasons, including instability of the enzyme on LB agar and the possibility that LPO may be bound to and concentrated on the bacterial surface, as has been previously described for Streptococci (Pruitt K M, et al. Lactoperoxidase binding to streptococci. Infection and immunity. 1979; 25(1):304-9). […]

The mark [12] stands for this setting: LPO 1000 mU/ml, 0 to 4 hours, diluted 10× before plating.

Chain of Sec-containing TrxR2 (Sec-TrxR2) (Q9JLT4 35-524): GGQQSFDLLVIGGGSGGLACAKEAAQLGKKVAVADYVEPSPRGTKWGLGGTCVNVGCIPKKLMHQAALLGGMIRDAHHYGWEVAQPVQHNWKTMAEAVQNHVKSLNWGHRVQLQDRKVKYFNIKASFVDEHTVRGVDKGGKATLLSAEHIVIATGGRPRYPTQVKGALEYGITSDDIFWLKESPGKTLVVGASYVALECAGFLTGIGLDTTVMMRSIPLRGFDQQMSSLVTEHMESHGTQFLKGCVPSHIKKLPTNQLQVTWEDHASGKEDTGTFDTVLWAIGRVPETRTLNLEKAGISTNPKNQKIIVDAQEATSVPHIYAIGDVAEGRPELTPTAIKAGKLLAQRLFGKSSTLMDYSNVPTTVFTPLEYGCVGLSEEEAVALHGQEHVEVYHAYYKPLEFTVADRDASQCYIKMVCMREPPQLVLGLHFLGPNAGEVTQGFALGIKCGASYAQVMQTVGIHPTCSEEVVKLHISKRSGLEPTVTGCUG
Chain of recombinant E. coli Cys-TrxR (P0A9P4 whole entry): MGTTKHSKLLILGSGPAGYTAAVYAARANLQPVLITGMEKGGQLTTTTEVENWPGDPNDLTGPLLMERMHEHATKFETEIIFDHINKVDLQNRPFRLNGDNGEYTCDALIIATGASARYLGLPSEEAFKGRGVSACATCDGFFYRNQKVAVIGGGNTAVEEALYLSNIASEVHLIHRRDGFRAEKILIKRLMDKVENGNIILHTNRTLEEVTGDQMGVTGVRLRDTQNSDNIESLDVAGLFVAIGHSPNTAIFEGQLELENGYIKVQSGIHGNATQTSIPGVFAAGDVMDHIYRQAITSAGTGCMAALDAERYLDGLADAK

For `N#C[Se]O` [HOSeCN, hyposelenocyanite], the HOSeCN metabolism activity entry in data set [1] is “no measurable activity”. Besides, the “Bacterial cell viability (CFU)” value in [2] is on record as “killing bacteria”. Also, at DmTrxR (containing Cys), the “Inactivation of DmTrxR by oxidant” value is listed as “is inactivated”. The “Inactivation of Sec-TrxR2 by oxidant” value in data set [3] was “resists inactivation”.
Turning to `CC(=O)OC[C@H]1O[C@@H]([S-])[C@H](OC(C)=O)[C@@H](OC(C)=O)[C@@H]1OC(C)=O.CCP(CC)CC.[Au+]` [auranofin], the “Sensitization of lung cells to HOSCN-mediated toxicity” value in the data set with 16HBE cells is given as “sensitizes lung cells to HOSCN-mediated toxicity”.
As to `N#C[SeH]` [SeCN, selenocyanate], the “Killing of thiocyanate susceptible and resistant bacteria, compared with SCN” value in [4] is “as effective or superior”. The “Killing of M. Abscessus, compared with SCN” value in the data set with M. Abscessus is reported as “more efficient than SCN”. The “Killing of NTM with LPO, without GOX” value in [5] is “only required LPO and —SeCN”. Besides, the “Effect of LPO and SeCN alone upon B. cepacia” value in [6] is “no effect”. Besides, the Bacterial viability entry in [7] is given as “less than 10%”. Besides, in [8], the “Toxicity to human epithelial cells (HBE viability)” value was “not toxic”. In data set [9] (setting [12]), the “Bacterial growth in Middlebrook 7H9 media” value was “prevented bacterial growth” and the “Viability in LB broth” value is given as “loss of viability”. Moreover, the “Killing in PBS buffer” value in data set [9] (with LPO, samples diluted 10-fold before plating on LB agar) was “no killing detected”. Moreover, the “Killing of NTM after LPO preincubation and washing” value in the data set on NTM was “substantial killing”. Further, in data set [10], the “ELF SeCN levels” value is “high ELF SeCN levels” and the “Tolerability of inhaled SeCN” value is given as “well tolerated”.
On to `OCl` [HOCl, hypochlorite], for which the “Inactivation of DmTrxR by oxidant” value on DmTrxR (containing Cys) is reported as “is inactivated”. Besides, the “Inactivation of Sec-TrxR2 by oxidant” value in data set [3] is “resists inactivation”.
On to catalase, for which the “Inhibition of LPO/SeCN-mediated killing” value in data set [11] worked out at 100%.

Source of the values: patent publication US11986450B2, “Methods and compositions for treating infection and inflammation with selenocyanate” (National Jewish Health, priority 2017, dated 2024).
